In brackets after ≈: the same amount, converted by molar mass. Read-outs that look alike come from different tables or passages of the source.
How the values were obtained:
[1] = tested on: E. histolytica HM1:IMSS; test: ATP-bioluminescence growth/survival EC50 assay, E. histolytica; assay type: cell-based, Entamoeba histolytica; conditions: Entamoeba histolytica
Method: (§1) Compounds were screened for antiparasitic activity using an ATP-bioluminescence based assay for cell growth and survival, [24]. […] Viable cell numbers were determined in triplicate using the CellTiter-Glo Luminescent Cell Viability Assay.

[2] = tested on: C. difficile 630 (ATCC BAA-1382); test: Broth microdilution MIC assay, C. difficile 630; assay type: cell-based, Clostridium difficile; conditions: Clostridioides difficile, ATCCBAA1382
Method: Clostridium difficile strains (630, ATCC BAA-1382 and NAP1/027, ATCC BAA-1803) were maintained as previously described. The minimum inhibition concentration (MIC) was determined according to the CLSI Methods with modifications in broth and inoculum for C. difficile, [25], [26]. Briefly, compounds and control antibiotics were serially diluted two-fold in 96-well plates (Non-binding surface, Corning). […] C. difficile bacteria from BHIS(TA) agar plates were cultured anaerobically in BHIS at 37 °C overnight. […] An antibiotic standard, a positive growth control (no compound) and a sterility control (no bacteria) were included on each 96 well plate. Plates were covered and incubated at 37 °C for 24 h. MICs for each strain were determined as the lowest concentration without visible growth. […] Median MICs are reported with a range given when the median MIC was between two tested concentrations.

[3] = Resazurin cytotoxicity assay, HepG2; assay type: cell-based, Human; conditions: human, HepG2 cells, 24 h, highest concentration 100 μM; n = 3; read-out: CC50 Hep G2
Method: (§2) Human HEK293 and HepG2 cells were seeded at 3000 and 5000 cells per well in 384-well plates, respectively. Cells were cultured in Dulbecco's modified Eagle's medium with 10% FBS for 24 h at 37 °C, 5% CO2. A dilution series of compounds was added, with the highest concentration of 100 μM. […] After 24 h incubation with the compounds, 5 μM resazurin was added into each well and incubated at 37 °C for 2 h. As a negative control, 1% Triton X-100 was added into the culture media to lyse all of the cells. The fluorescence intensity was read using Polarstar Omega with excitation/emission 560/590 nm. Data were analysed with GraphPad Prism 6 software (La Jolla, California USA) to calculate CC50 values.

[4] = tested on: G. lamblia 713M3 (MtzR); test: ATP-bioluminescence growth/survival EC50 assay, G. lamblia 713M3; assay type: cell-based, Giardia lamblia
Method: as §1

[5] = tested on: T. vaginalis F1623; test: ATP-bioluminescence growth/survival EC50 assay, T. vaginalis; assay type: cell-based, Trichomonas vaginalis
Method: as §1

[6] = tested on: C. difficile NAP1/027 (ATCC BAA-1803); test: Broth microdilution MIC assay, C. difficile NAP1/027; assay type: cell-based, Clostridium difficile; conditions: Clostridioides difficile, ATCCBAA1803; strain NAP1/027
Method: Clostridium difficile strains (630, ATCC BAA-1382 and NAP1/027, ATCC BAA-1803) were maintained as previously described. The minimum inhibition concentration (MIC) was determined according to the CLSI Methods with modifications in broth and inoculum for C. difficile, [25], [26]. Briefly, compounds and control antibiotics were serially diluted two-fold in 96-well plates (Non-binding surface, Corning). The plates were placed in a Coy anaerobic chamber (5% H2, 10% CO2, 85% N2) overnight to reduce the medium. C. difficile bacteria from BHIS(TA) agar plates were cultured anaerobically in BHIS at 37 °C overnight. […]. Compound concentration ranged from 64 to 0.03 μg/mL. An antibiotic standard, a positive growth control (no compound) and a sterility control (no bacteria) were included on each 96 well plate. Plates were covered and incubated at 37 °C for 24 h. MICs for each strain were determined as the lowest concentration without visible growth. Variance between replicates was typically within one 2-fold dilution. Median MICs are reported with a range given when the median MIC was between two tested concentrations.

[7] = Resazurin cytotoxicity assay, HEK293; assay type: cell-based, Human; conditions: human, HEK293 cells, 24 h, highest concentration 100 μM; n = 3; read-out: CC50 HEK 293
Method: as §2

[8] = tested on: G. lamblia WB (MtzS); test: ATP-bioluminescence growth/survival EC50 assay, G. lamblia WB; conditions: for EC50: Giardia duodenalis; for S.I (CC50/EC50): average cytotoxicity against HEK293 and HepG2 / G. lamblia WB activity
Method: as §1

[9] = Plasma protein binding by ultrafiltration; assay type: in vitro ADME; conditions: human, pooled human plasma (100%), 5 μM, 100% human plasma, 37 °C, 30 min, ultrafiltration; for fraction unbound at 30 min, 5 μM: read-out: Plasma protein binding (% bound); for fraction unbound at 0.5 h, 5 µM: read-out: Plasma protein binding (% bound) (converted)
Method: Plasma Protein Binding (PPB) was performed using an Ultrafiltration method, [28]. […] Samples were incubated at […] for 30 min, then centrifuged at 14,000 × g for 8 min, with the clear supernatant transferred to a vial for LC/MS/MS analysis. […] The fraction of unbound compound was calculated by determining the concentration of the filtered sample and the concentration of unfiltered sample. […] LC/MS/MS parameters are detailed in the supplementary information (Supplementary Table 1).

[10] = read-out: EC50 E. histolytica HM1:IMSS
[11] = read-out: pEC50 ± SE E. histolytica HM1:IMSS (converted)
[12] = 630 and NAP1/027 strains together or strain not given, read-out: MIC C. difficile
[13] = strain 630, MtzS, median of n = 4, read-out: MIC C. difficile 630
[14] = Giardia duodenalis, read-out: EC50 G. lamblia 713M3, MtzR strain 713M3, minimum n = 3
[15] = Giardia duodenalis, read-out: pEC50 ± SE G. lamblia 713M3, MtzR strain 713M3 (converted)
[16] = Trichomonas vaginalis, read-out: EC50 T. vaginalis F1623, MtzS, minimum n = 3
[17] = Trichomonas vaginalis, read-out: pEC50 ± SE T. vaginalis F1623, MtzS (converted)
[18] = read-out: pEC50 ± SE G. lamblia WB, MtzS strain WB (converted)
[19] = read-out: EC50 G. lamblia WB, MtzS strain WB, minimum n = 3

SMILES: O=C(NC1CCCCC1)c1ncc([N+](=O)[O-])[nH]1 [Compound 12k, N-cyclohexyl-5-nitro-1H-imidazole-2-carboxamide]
- EC50 [1, 10]: 2.8 µM
- EC50 [1, 11]: 2.82 µM
- MIC [2, 12]: 4 to 16 µg/mL (≈ 16.8 to 67.2 µM)
- MIC [2, 13]: 8 µg/mL (≈ 33.6 µM)
- CC50 at 24 h [3]: > 100 µM
- EC50 [4, 14]: 5.5 µM
- EC50 [4, 15]: 5.5 µM
- EC50 [5, 16]: 2.4 µM
- EC50 [5, 17]: 2.45 µM
- MIC [6]: 8 µg/mL (≈ 33.6 µM)
- CC50 at 24 h [7]: > 100 µM
- EC50 [8, 18]: 0.603 µM
- S.I (CC50/EC50) [8]: >167
- fraction unbound at 30 min, 5 μM [9]: ≤ 0.06
- fraction unbound at 0.5 h, 5 µM [9]: 0.01

SMILES: O=C(NC1CC1)c1ncc([N+](=O)[O-])[nH]1 [Compound 12j, N-cyclopropyl-5-nitro-1H-imidazole-2-carboxamide]
- EC50 [1, 10]: 5.3 µM
- EC50 [1, 11]: 5.25 µM
- MIC [2, 12]: 1 µg/mL (≈ 5.1 µM)
- MIC [2, 13]: 1 µg/mL (≈ 5.1 µM)
- CC50 at 24 h [3]: > 100 µM
- EC50 [4, 14]: > 20 µM
- EC50 [4, 15]: > 20 µM
- EC50 [5, 16]: 4.4 µM
- EC50 [5, 17]: 4.37 µM
- MIC [6]: 1 µg/mL (≈ 5.1 µM)
- CC50 at 24 h [7]: > 100 µM
- EC50 [8, 19]: 5 µM
- EC50 [8, 18]: 5.01 µM
- S.I (CC50/EC50) [8]: >20

SMILES: O=C(NCc1ccccn1)c1ncc([N+](=O)[O-])[nH]1 [Compound 12f, 5-nitro-N-(pyridin-2-ylmethyl)-1H-imidazole-2-carboxamide]
- EC50 [1, 10]: 15 µM
- EC50 [1, 11]: 15.1 µM
- MIC [2, 13]: 2 µg/mL (≈ 8.09 µM)
- CC50 at 24 h [3]: > 100 µM
- EC50 [4, 14]: > 20 µM
- EC50 [4, 15]: > 20 µM
- EC50 [5, 16]: 7.1 µM
- EC50 [5, 17]: 7.08 µM
- MIC [6]: 2 µg/mL (≈ 8.09 µM)
- CC50 at 24 h [7]: > 100 µM
- EC50 [8, 19]: 7.2 µM
- EC50 [8, 18]: 7.24 µM
- S.I (CC50/EC50) [8]: >14

SMILES: Cn1c([N+](=O)[O-])cnc1C(=O)NC1CCCCC1 [Compound 8k, N-cyclohexyl-1-methyl-5-nitro-1H-imidazole-2-carboxamide]
- EC50 [1, 10]: 3.7 µM
- EC50 [1, 11]: 3.72 µM
- MIC [2, 13]: > 64 µg/mL
- CC50 at 24 h [3]: > 100 µM
- EC50 [4, 14]: 5.1 µM
- EC50 [4, 15]: 5.01 µM
- EC50 [5, 16]: 11 µM
- EC50 [5, 17]: 10.7 µM
- MIC [6]: > 64 µg/mL
- CC50 at 24 h [7]: > 100 µM
- EC50 [8, 19]: 4.9 µM
- EC50 [8, 18]: 4.9 µM
- S.I (CC50/EC50) [8]: >20
- fraction unbound at 30 min, 5 μM [9]: ≤ 0.06
- fraction unbound at 0.5 h, 5 µM [9]: 0.06

SMILES: Cc1ccc(CCNC(=O)c2ncc([N+](=O)[O-])[nH]2)cc1 [Compound 12e, N-(4-methylphenethyl)-5-nitro-1H-imidazole-2-carboxamide]
- EC50 [1, 10]: 2.1 µM
- EC50 [1, 11]: 2.09 µM
- MIC [2, 12]: 4 to 16 µg/mL (≈ 14.6 to 58.3 µM)
- MIC [2, 13]: 8 µg/mL (≈ 29.2 µM)
- CC50 at 24 h [3]: > 100 µM
- EC50 [4, 14]: ≤ 2.5 µM
- EC50 [4, 15]: 1.35 µM
- EC50 ([4]; read-out: EC50 G. lamblia 713M3, MtzR strain 713M3, minimum n = 3): 1.4 µM
- EC50 [5, 16]: 1.2 to 2.3 µM
- EC50 [5, 17]: 1.2 µM
- EC50 ([5]; read-out: EC50 T. vaginalis F1623, MtzS, minimum n = 3): 1.2 µM
- MIC [6]: 8 µg/mL (≈ 29.2 µM)
- CC50 at 24 h [7]: > 100 µM
- EC50 [8, 19]: 0.1 to 0.6 µM
- EC50 [8, 18]: 0.1 µM
- S.I (CC50/EC50) [8]: >1000

SMILES: CN(CCO)C(=O)c1ncc([N+](=O)[O-])[nH]1 [Compound 12o, N-(2-hydroxyethyl)-N-methyl-5-nitro-1H-imidazole-2-carboxamide]
- EC50 [1, 10]: > 50 µM
- EC50 [1, 11]: > 50.1 µM
- MIC [2, 12]: 0.5 to 2 µg/mL (≈ 2.33 to 9.34 µM)
- MIC [2, 13]: 2 µg/mL (≈ 9.34 µM)
- CC50 at 24 h [3]: > 100 µM
- EC50 [4, 14]: > 20 µM
- EC50 [4, 15]: > 20 µM
- EC50 [5, 16]: > 20 µM
- EC50 [5, 17]: > 20 µM
- MIC [6]: 4 µg/mL (≈ 18.7 µM)
- CC50 at 24 h [7]: > 100 µM
- EC50 [8, 19]: 24 µM
- EC50 [8, 18]: 24 µM
- S.I (CC50/EC50) [8]: >4

SMILES: CN(C)C(=O)c1ncc([N+](=O)[O-])[nH]1 [Compound 12g, N,N-dimethyl-5-nitro-1H-imidazole-2-carboxamide]
- EC50 [1, 10]: 2.7 µM
- EC50 [1, 11]: 2.69 µM
- MIC [2, 13]: 2 µg/mL (≈ 10.9 µM)
- CC50 at 24 h [3]: > 100 µM
- EC50 [4, 14]: > 20 µM
- EC50 [4, 15]: > 20 µM
- EC50 [5, 16]: 2.4 µM
- EC50 [5, 17]: 2.34 µM
- MIC [6]: 2 µg/mL (≈ 10.9 µM)
- CC50 at 24 h [7]: > 100 µM
- EC50 [8, 19]: 8.3 µM
- EC50 [8, 18]: 8.32 µM
- S.I (CC50/EC50) [8]: >12

Reference: article PMC4920673, “Nitroimidazole carboxamides as antiparasitic agents targeting Giardia lamblia, Entamoeba histolytica and Trichomonas vaginalis” (European Journal of Medicinal Chemistry, 2016)
